Measured values from PMC10787225 (Computational and Structural Biotechnology Journal, 2023).
“Also recorded” adds a separate entry of the source. Where no end group is shown, it is not given here.

Experiments:
β-wrapin AS10 [1] = details: cited from earlier work
Text: We have previously observed β-hairpins in amyloid-β (Aβ), α-synuclein (αSyn), and islet amyloid polypeptide (IAPP), amyloidogenic proteins associated with AD, PD, and T2D, respectively (Fig. 2), [38], [39]. These β-hairpins are established upon binding to engineered binding proteins termed β-wrapins. β-Wrapins are selected from protein libraries based on ZAβ3, an affibody with high affinity for monomeric Aβ [37], [39], [40], [41], [42]. β-Hairpin structures of Aβ, αSyn and IAPP have been determined by NMR spectroscopy of their complexes with ZAβ3 and the β-wrapins AS69 and ...

[2] = Thioflavin T (ThT) aggregation assay; assay type: physicochemical
Procedure: All ThT aggregation assays were done in Greiner 96-well half-area, clear bottom, low-binding plates. The measurements themselves were done in a BMG CLARIOstar plate reader at 37 °C and 300 rpm shaking in orbital mode with one glass bead (0.75–1 mm, Roth) per well. Wells with samples were always surrounded by wells filled with liquid, either other samples or 150 μl water, to counter potential artefacts due to evaporation. […] Final concentrations of 25 µM ThT and 0.04% sodium azide (NaN3) were added. The plate was sealed with sealing tape and put into the plate reader, heated to 37 °C, and ThT fluorescence was read in 1000 cycles of 300 s each using bottom optics with excitation at 448 nm (10 nm bandwidth) and emission at 482 nm (10 nm bandwidth). […] Samples contained 40 µM ThT and 0.04% NaN3.
Fig. 4 Test set of eight protein segments. (A) List of the investigated peptides. Underlined stretches in the peptide sequences correspond to the predicted amyloidogenic β-hairpins. A peptide was considered ‘soluble’ when no visible precipitation occurred upon dissolution of the lyophilized peptide in 20 mM NaPi, pH 7.4, 50 mM NaCl, to a final concentration of 20 µM. […] (B) Conformations of investigated segments (red) in the context of their source proteins.

β-wrapin AS10 [3] = assay: Isothermal titration calorimetry (ITC) of peptide binding to AS10; details: 30 °C, 30 µM AS10 in cell, peptide titrated from syringe, 20 mM sodium phosphate, pH 7.4, 50 mM NaCl, 1:1 binding model, read-out: Affinity to AS10 (dissociation constant KD)
Procedure: ITC was performed at 30 °C using a Microcal iTC200 calorimeter (GE Healthcare). AS10 was filled into the cell at a concentration of 30 µM in 20 mM sodium phosphate, pH 7.4, 50 mM NaCl. Peptides were titrated from the syringe in approximately 10-fold higher concentrations. Heats of post-saturation injections were averaged and subtracted from each injection to correct for heats of dilution and mixing. Dissociation constants were obtained from a nonlinear least-squares fit to a 1:1 binding model using MicroCal Origin.

[4] = Atomic force microscopy (AFM) of samples at the end of ThT aggregation assays; assay type: physicochemical
Procedure: (§1) For AFM imaging, 2 μl samples were taken out of the wells at the end of the ThT aggregation assays, put onto a freshly cleaved muscovite mica surface and dried during incubation for 10 min under the clean bench. Subsequently, the samples were washed with 100 μl ddH2O in three steps and dried with a stream of N2 gas. Imaging was performed in intermittent contact mode (AC mode) in a JPK NanoWizard 3 atomic force microscope using a silicon cantilever with silicon tip (OMCL-AC160TS-R3, Olympus) with a typical tip radius of 9 ± 2 nm, a force constant of 26 N/m and resonance frequency around 300 kHz. The images were processed using JPK DP Data Processing Software (version spm-5.0.84).

PAP(248−286) = assay: ThT aggregation assay and AFM of PAP(248−286) in presence of added peptide; assay type: biochemical, human
Procedure: (§2) All ThT aggregation assays were done in Greiner 96-well half-area, clear bottom, low-binding plates. The measurements themselves were done in a BMG CLARIOstar plate reader at 37 °C and 300 rpm shaking in orbital mode with one glass bead (0.75–1 mm, Roth) per well. Wells with samples were always surrounded by wells filled with liquid, either other samples or 150 μl water, to counter potential artefacts due to evaporation. […] Final concentrations of 25 µM ThT and 0.04% sodium azide (NaN3) were added. The plate was sealed with sealing tape and put into the plate reader, heated to 37 °C, and ThT fluorescence was read in 1000 cycles of 300 s each using bottom optics with excitation at 448 nm (10 nm bandwidth) and emission at 482 nm (10 nm bandwidth). […] PAP(248−286) and SEM1(86−107) were kept at constant concentrations of 500 and 300 µM, respectively. […] Samples contained 40 µM ThT and 0.04% NaN3.
as §1

SEM1(86−107) = assay: ThT aggregation assay and AFM of SEM1(86−107) in presence of added peptide; assay type: biochemical, human
Procedure: as §2, §1

| Substance | Affinity for β-wrapin AS10 (β-wrapin AS10 [1]) | ThT fluorescence time course ([2]; 20–25 µM peptide, 20 mM NaPi, pH 7.4, 50 mM NaCl, 37 °C, 25 µM ThT, triplicate) | Peptide concentration sufficient for amyloid formation ([2]; ThT assay, Fig. 5D (550 µM, 20 mM NaPi, pH 7.4, 50 mM NaCl)) | ThT ([2]; peptide 20–550 µM, up to 85 h, 20 mM NaPi, pH 7.4, 50 mM NaCl, 37 °C, 300 rpm, glass bead, 25 µM ThT, triplicate) | ThT fluorescence of peptide alone ([2]; peptide alone 25–100 µM (up to 100 µM), 50 mM Tris, pH 8.5, 37 °C, 40 µM ThT) | ThT fluorescence time course ([2]; peptide increased to 500–550 µM, 20 mM NaPi, pH 7.4, 50 mM NaCl, 37 °C, 25 µM ThT, triplicate) | Kd (β-wrapin AS10 [3]) | AFM aggregate morphology ([4]; end of ThT aggregation assay in 20 mM NaPi, pH 7.4, 50 mM NaCl, dried on mica) | AFM aggregate morphology of individual peptide ([4]; end of ThT assay at moderate peptide concentrations without ThT fluorescence, 50 mM Tris, pH 8.5) | Effect of added peptide on ThT time trace of PAP(248−286) (PAP(248−286); 500 µM PAP(248−286), added peptide 25–100 µM, 50 mM Tris, pH 8.5, 37 °C, 40 µM ThT) | AFM morphology after co-incubation with PAP(248−286) (PAP(248−286); AFM at end of aggregation assay, 500 µM PAP(248−286) with PAP(185−208)) | Effect of added peptide on ThT time trace of SEM1(86−107) (SEM1(86−107); 300 µM SEM1(86−107), added peptide 25–100 µM, 50 mM Tris, pH 8.5, 37 °C, 40 µM ThT) | AFM morphology after co-incubation with SEM1(86−107) (SEM1(86−107); AFM at end of aggregation assay, 300 µM SEM1(86−107) with PAP(185−208)) |
| --- | --- | --- | --- | --- | --- | --- | --- | --- | --- | --- | --- | --- | --- |
| Aβ: amyloid-β, amyloidogenic protein associated with AD | sub-micromolar |  |  |  |  |  |  |  |  |  |  |  |  |
| IAPP: islet amyloid polypeptide, amyloidogenic protein associated with T2D (KCNTATCATQRLANFLVHSSNNFGAILSSTNVGSNTY; Islet amyloid polypeptide; UniProt P10997 34-70, looked up) | sub-micromolar |  |  |  |  |  |  |  |  |  |  |  |  |
| KDFIATLGKLSGLHGQDLFGIWSK [PAP(185−208)] |  | no increase in fluorescence intensity was detected | > 0.5 mM | + | did not exhibit ThT fluorescence; also recorded: do not exhibit ThT fluorescene | exhibited ThT fluorescence | 39 ± 5 µM | fibrillar aggregates confirming amyloid formation were detected | aggregates of amorphous shape | ThT time traces featuring a lag-time and a phase of rapid growth indicative of amyloid formation | shift to fibrillar aggregate morphology | ThT time traces featuring a lag-time and a phase of rapid growth indicative of amyloid formation | shift to fibrillar aggregate morphology |
